Results from ChEMBL document CHEMBL2203009, “Synthesis of isoindole and benzoisoindole derivatives of teicoplanin pseudoaglycon with remarkable antibacterial and antiviral activities” (Bioorg Med Chem Lett, 2012).

Key:
[1] = Toxicity in HEL cells assessed as induction of cell morphology changes; format: cell-based; details: human
Human alphaherpesvirus 1 [2] = test: Antiviral activity against thymidine kinase deficient and acyclovir-resistant HSV1 KOS infected in HEL cells assessed as inhibition of virus-induced cytopathic effect; format: functional, organism-based; details: Human alphaherpesvirus 1, KOS
[3] = system: Vesicular stomatitis virus; test: Antiviral activity against Vesicular stomatitis virus infected in HEL cells assessed as inhibition of virus-induced cytopathic effect; format: functional, organism-based
Vaccinia virus = test: Antiviral activity against Vaccinia virus infected in HEL cells assessed as inhibition of virus-induced cytopathic effect; format: functional, organism-based; details: Orthopoxvirus vaccinia
Human alphaherpesvirus 2 = test: Antiviral activity against HSV2 G infected in HEL cells assessed as inhibition of virus-induced cytopathic effect; format: functional, organism-based; details: Human alphaherpesvirus 2, strain G
Human alphaherpesvirus 1 [4] = test: Antiviral activity against HSV1 KOS infected in HEL cells assessed as inhibition of virus-induced cytopathic effect; format: functional, organism-based; details: Human alphaherpesvirus 1, KOS
[5] = Toxicity in MDCK cells assessed as induction of cell morphology changes; format: cell-based, Canis lupus familiaris; details: dog
Influenza B virus = test: Antiviral activity against Influenza B virus (B/Hong Kong/05/1972) […] infected in MDCK cells assessed as inhibition of virus-induced cytopathic effect; format: functional, cell-based; details: B/Hong Kong/05/1972, MDCK
H3N2 subtype = test: Antiviral activity against Influenza A virus (A/Hong Kong/7/1987(H3N2)) […] infected in MDCK cells assessed as inhibition of virus-induced cytopathic effect; format: functional, organism-based
Influenza A virus = test: Antiviral activity against Influenza A virus (A/Puerto Rico/8/1934(H1N1)) H1N1 infected in MDCK cells assessed as inhibition of virus-induced cytopathic effect; format: functional, organism-based

SMILES | MCC [1] | EC50 (Human alphaherpesvirus 1 [2]) | EC50 [3] | EC50 (Vaccinia virus) | EC50 (Human alphaherpesvirus 2) | EC50 (Human alphaherpesvirus 1 [4]) | MCC [5] | EC50 (Influenza B virus) | EC50 (H3N2 subtype) | EC50 (Influenza A virus)
Nc1nc2c(ncn2COCCO)c(=O)[nH]1 [ACYCLOVIR] | > 250 µM | 44 µM | > 250 µM | ≥ 250 µM | 0.14 µM | 0.14 µM | – | – | – | –
NC12CC3CC(CC(C3)C1)C2 [AMANTADINE] | – | – | – | – | – | – | ≥ 500 µM | > 500 µM | 0.45 µM | 212 µM
O=c1[nH]c(=O)n([C@H]2C[C@H](O)[C@@H](CO)O2)cc1/C=C/Br [BRIVUDINE] | > 250 µM | 50 µM | > 250 µM | 10 µM | 198 µM | 0.024 µM | – | – | – | –
Nc1ccn(C[C@@H](CO)OCP(=O)(O)O)c(=O)n1 [CIDOFOVIR] | > 250 µM | 1.5 µM | > 250 µM | 21 µM | 0.9 µM | 1.5 µM | – | – | – | –
Nc1nc2c(ncn2COC(CO)CO)c(=O)[nH]1 [GANCICLOVIR] | > 100 µM | 4 µM | > 100 µM | > 100 µM | 0.013 µM | 0.015 µM | – | – | – | –
NC(=O)c1ncn([C@@H]2O[C@H](CO)[C@@H](O)[C@H]2O)n1 [RIBAVIRIN] | – | – | – | – | – | – | – | 4.6 µM | 6 µM | 6.1 µM
CC(N)C12CC3CC(CC(C3)C1)C2 (stereo not drawn) [RIMANTADINE] | – | – | – | – | – | – | – | > 500 µM | 0.051 µM | 14 µM
CC(=O)N[C@H]1[C@H]([C@H](O)[C@H](O)CO)OC(C(=O)O)=C[C@@H]1NC(=N)N [ZANAMIVIR] | – | – | – | – | – | – | > 100 µM | 23 µM | 4.8 µM | 1.6 µM
